Experimental data taken from publication PMC12210252 (2025).

What was measured:
[1] = tested on: AptT4 (SH-5′-AptT4) (DNA, aptamer) CGCCGTTGGTGTTCGGTCAGGCTTCCGTGGCAACGGGGCAAAATGGTAATCGCGGGGAACC; experiment: SnS2 field-effect transistor, Langmuir isotherm fit; settings: 137 mM NaCl, 2.7 mM KCl, 0.5 mM MgCl2; 1× PBS (10 mM Na2HPO4, 2 mM KH2PO4), pH 7.4; aptamer immobilised with PEG
[2] = tested on: AptT4 (SH-5′-AptT4) (DNA, aptamer) CGCCGTTGGTGTTCGGTCAGGCTTCCGTGGCAACGGGGCAAAATGGTAATCGCGGGGAACC; experiment: SnS2 field-effect transistor, selectivity test; settings: 137 mM NaCl, 2.7 mM KCl, 0.5 mM MgCl2; 1× PBS, pH 7.4; tested at 10 nM against 1 pM T4; low response

| Compound | K d [1] | binding [2] |
| --- | --- | --- |
| N[C@@H](Cc1cc(I)c(Oc2cc(I)c(O)c(I)c2)c(I)c1)C(=O)O | 0.0144 ± 0.0008 nM | – |
| N[C@@H](Cc1cc(I)c(Oc2ccc(O)c(I)c2)c(I)c1)C(=O)O | – | no |
| CC(C)(c1ccc(O)cc1)c1ccc(O)cc1 | – | no |
